Data: patent publication US20020193425A1, “Cancer chemopreventative compounds and compositions and methods of treating cancers” (priority 2001, published 2002)

What was measured:
c-myc mRNA, K562 = assay: c-myc mRNA levels, real time RT-PCR; type: cell-based
Description: (§1) RNA was extracted from 10^6 cells using TRIZOL® Reagent (Life Technologies). Following isopropanol precipitation, the pellet was washed in 75% aqueous ethanol and the RNA was dissolved in […] of diethyl pyrocarbonate (DEPC)-treated distilled water. Subsequently, the samples were stored at −80° C. RNA quantitation was performed by UV measurement at 260 nm. The cDNA synthesis was performed in a total volume of […], containing 1×TaqManÒ RT buffer, 5.5 mM MgCl2, 2 mM dNTPs mixture, 2.5 mM random hexamers, 4 U RNase inhibitor, 12.5 U MultiScriber RT (Perkin Elmer/Applied Biosystems) and […] of RNA. The reaction was performed for 10 min at 25° C., followed by 48° C. for 30 min and a 5 min incubation step at 95° C. After the reaction, […] of DEPC-treated distilled water was added to each sample and […] was used for each PCR.
(§2) The PCR and subsequent analyses were performed in the GeneAmp 5700 Sequence Detection System (Applied Biosystems). Real-time quantitation was performed using the TaqMan technology of Applied Biosystems (Foster City, Calif., USA). c-Myc primers and probe sequences (5′ to 3′) were as follows: […], […] and […] (Applied Biosystems).
(§3) PCR reactions were performed in triplicate. The PCR reaction mixture contained 300 nM of both primers, 150 nM TaqMan probe, and 1×TaqMan Universal Master Mix (Applied Biosystems). The reactions first were incubated at 50° C. for 2 min, followed by 10 min at 95° C. The PCR itself consisted of 40 cycles with 15 s at 95° C. and 1 min at 60° C. each. The fluorescence signal was measured during the last 30 s of the annealing/extension phase. After the PCR, a fluorescence threshold value was set and threshold cycle (Ct) values were determined, i.e., the fractional cycle at which the fluorescence signal reached this threshold. These values were used for further calculations.
(§4) β-Actin (TaqMan PDAR control, Applied Biosystems) was used as an endogenous reference to correct for any differences in the amount of total RNA used for a reaction and to compensate for different levels of inhibition during reverse transcription of RNA into cDNA. c-Myc and β-actin expression were related to a standard curve derived from a serial dilution of K562 cDNA with dH2O. Also, c-Myc and β-actin quantities were expressed in terms of ng of K562 RNA yielding the same level of expression. Subsequently, normalization was achieved by dividing the expression level of c-Myc by the β-actin expression level. Finally, results were expressed as a percentage, where the level of c-Myc observed in the DMSO-treated samples was considered as 100%.
(§5) Cells were treated with brusatol (25 ng/ml) or bruceantin (10 ng/ml) for 4 or 24 h and then analyzed for c-myc and β-actin mRNA using real time RT-PCR. Results are shown as percentage of c-myc mRNA expression of control (0.1%, v/v, DMSO) values. Results are the mean of triplicate samples (±standard deviation). c-Myc mRNA values were normalized relative to β-actin.

c-myc mRNA, Kasumi-1 = assay: c-myc mRNA levels, real time RT-PCR; type: cell-based
Description: as §1, §2, §3, §4, §5

c-myc mRNA, NB4 = assay: c-myc mRNA levels, real time RT-PCR; type: cell-based
Description: as §1, §2, §3, §4, §5

c-myc mRNA, RS4;11 = assay: c-myc mRNA levels, real time RT-PCR; type: cell-based
Description: as §1, §2, §3, §4, §5

c-myc mRNA, Reh = assay: c-myc mRNA levels, real time RT-PCR; type: cell-based
Description: as §1, §2, §3, §4, §5

HL-60 cells [1] = assay: In vivo hollow fiber test
Description: As a preliminary test of in vivo efficacy, a hollow fiber study was performed. The in vivo hollow fiber test was performed using literature procedures with some modifications (see M. G. Hollingshead et al., Life Sic., 57, pages 131-141 (1995)). HL-60 cells were cultured in RPMI 1640 medium and collected by centrifugation and resuspended in conditioned medium at a concentration of 2.5×10^6 cells/ml. Fibers filled with cells were incubated in 6-well plates overnight at 37° C. in a 5% CO2 atmosphere. Female athymic NCr nu/nu mice at 5-6 weeks of age were obtained from Frederick Cancer Research Facility. Each mouse hosted up to 6 fibers, which were cultured in two physiologic compartments. For intraperitoneal implants, a small incision was made through the skin and musculature of the dorsal abdominal wall, the fiber samples were inserted into the peritoneal cavity in a craniocaudal direction, and the incision was closed with skin staples. For subcutaneous implants, a small skin incision was made at the nape of the neck to allow insertion of an 11-gauge tumor implant trocar. The trocar, containing the hollow fiber samples, was inserted caudally through the subcutaneous tissues and fibers were deposited during withdrawal of the trocar. The incision was closed with a skin staple.
In preliminary studies, cell growth was assessed with fibers containing various cell densities. […] For treatment protocols, brusatol was dissolved in PBS. Mice were randomized into 7 groups: PBS vehicle control group (6 mice per group); 0.25, 0.5, 1.25, 2.5, 5, 12.5 mg/kg of brusatol (3 mice per group). Test compound brusatol was administered once daily by intraperitoneal injection from day 3-6 after implantation. Body weights were measured daily.
On day 7, mice were sacrificed and fibers were retrieved. […] Aliquots (150 μl) of extracted MTT formazan were transferred to Individual wells of 96-well plates and assessed for optical density at a wavelength of 540 nm. The effect of the treatment regimen was determined by the net growth percentage of the cells relative to change in […].

HL-60 cells [2] = assay: Withdrawal assays, growth and differentiation of HL-60 cells; type: cell-based, human; settings: 12.5 ng/ml
Description: The irreversibility of brusatol effects on growth and differentiation of HL-60 cells was tested using withdrawal assays during a 4-day experiment.
The assay lasted for 4 days (96 h) and then, cells were analyzed for viability and differentiation markers. […] Results are shown as the mean of duplicate samples (±standard deviation).

For `COC(=O)[C@@]12OC[C@]34[C@H]([C@@H](O)[C@@H]1O)[C@@]1(C)CC(=O)C(O)=C(C)[C@@H]1C[C@H]3OC(=O)[C@H](OC(=O)C=C(C)C)[C@@H]24` [compound 1, brusatol], the “decrease in c-Myc mRNA levels” value (c-myc mRNA, K562; 4 h treatment) was “about 40%”, the “c-myc mRNA expression, percentage of control” value (c-myc mRNA, K562; Brusatol (25 ng/ml), 4 h) was 62 ± 4 % and the “c-myc mRNA expression, percentage of control” value (c-myc mRNA, K562; Brusatol (25 ng/ml), 24 h) was 45 ± 6 %. The “c-myc mRNA expression, percentage of control” value (c-myc mRNA, Kasumi-1; Brusatol (25 ng/ml), 4 h) was 27 ± 5 %, the “c-myc mRNA expression, percentage of control” value (c-myc mRNA, Kasumi-1; Brusatol (25 ng/ml), 24 h) was 31 ± 3 % and the “c-myc mRNA expression, percentage of control” value (c-myc mRNA, NB4; Brusatol (25 ng/ml), 4 h) was 34 ± 4 %. For the same compound, the “c-myc mRNA expression, percentage of control” value (c-myc mRNA, NB4; Brusatol (25 ng/ml), 24 h) was 24 ± 3 %, the “c-myc mRNA expression, percentage of control” value (c-myc mRNA, RS4;11; RS4,11, Brusatol (25 ng/ml), 24 h) was 37 ± 2 % and the “c-myc mRNA expression, percentage of control” value (c-myc mRNA, RS4;11; RS4;11, Brusatol (25 ng/ml), 4 h) was 54 ± 5 %. The “c-myc mRNA expression, percentage of control” value (c-myc mRNA, Reh; Brusatol (25 ng/ml), 4 h) was 87 ± 2%, the “c-myc mRNA expression, percentage of control” value (c-myc mRNA, Reh; Brusatol (25 ng/ml), 24 h) was 38 ± 3 % and the “inhibition at s.c. site” value (HL-60 cells [1]; HL-60 hollow fibers, 5 mg/kg) was 80.8%. For the same compound, the “inhibitory percentage at s.c. site” value (HL-60 cells [1]; HL-60 hollow fibers, doses from 0.25 mg/kg, below 5 mg/kg) was “around 25%”, the lethality (HL-60 cells [1]; mice, 12.5 mg/kg) was “lethal” and the “cells induced to differentiate” value (HL-60 cells [2]; withdrawal after 48 h of exposure, 4-day experiment) was 41%. The “cells induced to differentiate” value (HL-60 cells [2]; without withdrawal) was 46%.
`COC(=O)[C@@]12OC[C@]34[C@H]([C@@H](O)[C@@H]1O)[C@@]1(C)CC(=O)C(O)=C(C)[C@@H]1C[C@H]3OC(=O)[C@H](OC(=O)/C=C(\C)C(C)C)[C@@H]24` [compound 2, bruceantin] was tested, and the “c-myc mRNA expression, percentage of control” value (c-myc mRNA, K562; Bruceantin (10 ng/ml), 4 h) was 55 ± 2 %, the “c-myc mRNA expression, percentage of control” value (c-myc mRNA, K562; Bruceantin (10 ng/ml), 24 h) was 33 ± 2 % and the “c-myc mRNA expression, percentage of control” value (c-myc mRNA, Kasumi-1; Bruceantin (10 ng/ml), 4 h) was 20 ± 2 %. For the same compound, the “c-myc mRNA expression, percentage of control” value (c-myc mRNA, Kasumi-1; Bruceantin (10 ng/ml), 24 h) was 15 ± 2 %, the “c-myc mRNA expression, percentage of control” value (c-myc mRNA, NB4; Bruceantin (10 ng/ml), 4 h) was 27 ± 4 % and the “c-myc mRNA expression, percentage of control” value (c-myc mRNA, NB4; Bruceantin (10 ng/ml), 24 h) was 85 ± 5%. For the same compound, the “c-myc mRNA expression, percentage of control” value (c-myc mRNA, RS4;11; RS4;11, Bruceantin (10 ng/ml), 4 h) was 68 ± 3%, the “c-myc mRNA expression, percentage of control” value (c-myc mRNA, RS4;11; RS4;11, Bruceantin (10 ng/ml), 24 h) was 31 ± 8 % and the “c-myc mRNA expression, percentage of control” value (c-myc mRNA, Reh; Bruceantin (10 ng/ml), 4 h) was 68 ± 5 %. For the same compound, the “c-myc mRNA expression, percentage of control” value (c-myc mRNA, Reh; Bruceantin (10 ng/ml), 24 h) was 42 ± 6 %.
